# Measurements: patent publication US20060079453A1, “Hla binding peptides and their uses” (priority 2002, published 2006)
# Read-outs that look alike come from different tables or passages of the source. No end group written: not given here.
# Key:
# Experiment in all cases: biochemical
# Type in all cases: binding
# HLA-DR DRB1*0802 (DR8) = HLA-DR DRB1*0802 (DR8) (Homo sapiens, UniProt P01903+P01911, A100R/A103L/A169T/F76Y/H45Y/I96F/K41T/L162R/M171V/P40S/Q125H/Q178H/Q39Y/Q99D/R218S/R42G/S66Y/V115G/W38E)
# HLA-DR DRB1*0701 (DR7) = HLA-DR DRB1*0701 (DR7) (Homo sapiens, UniProt P01903+P01911, A100R/A102G/A103Q/D57E/D86V/E43K/F76Y/K127E/L162R/M171V/P40G/Q125H/Q99D/R33Q/R42Y/R54Q/S133A/S66F/T210M/V115G/Y107V/Y59L/Y89S)
# HLA-DR DRB4*0101 (DR53) = HLA-DR DRB4*0101 (DR53) (Homo sapiens, UniProt P01903+P13762, G164S); details: DRB4 *0101
# HLA-DR DRB1*1302 (DR13) = HLA-DR DRB1*1302 (DR13) (Homo sapiens, UniProt P01903+P01911, A100E/A169T/K41T/L162R/M171V/P40S/Q125H/Q178H/Q39Y/Q99D/R42S/S66N/T262R/V115G/W38E/Y61H); details: DRBI *1302
# HLA-DR DRB1*0101 (DR1) = HLA-DR DRB1*0101 (DR1) (Homo sapiens, UniProt P01903+P01911, A100R/D57E/F55L/F60I/F76Y/I96L/L162R/M171V/P40L/Q125E/R42F/V115G/Y59C)
# HLA-DR DRB1*0401 (DR4) = HLA-DR DRB1*0401 (DR4) (Homo sapiens, UniProt P01903+P01911, A100K/A169T/F76Y/I96L/K127E/L162R/M171V/N62H/P40V/Q125Y/R42H/S133A/S149N/S66Y/V115G/V209L/W38E)
# HLA-DR DRB1*1501 (DR15) = HLA-DR DRB1*1501 (DR15) (Homo sapiens, UniProt P01903+P01911); details: DRBI *1501
# HLA-DR DRB5*0101 (DR51) = HLA-DR DRB5*0101 (DR51) (Homo sapiens, UniProt P01903+Q30154); details: DRB5 *0101
# HLA-DR DRB1*0901 (DR9) = HLA-DR DRB1*0901 (DR9) (Homo sapiens, UniProt P01903+P01911, A100R/A103E/D57H/D86V/F55Y/F60I/F76Y/I96F/K127E/L162R/M171V/P40D/Q125H/Q99R/R33Q/R42F/S133A/S66N/T210M/V115G/W38K/Y107V/Y59G/Y89S)
# HLA-DR DRB1*0301 (DR3) = HLA-DR DRB1*0301 (DR3) (Homo sapiens, UniProt P01903+P01911, A100K/A102G/A103R/A169T/F55Y/I96L/K41T/L162R/M171V/P40S/Q125H/Q178H/Q39Y/R42S/S66N/T106N/T262R/W38E/Y61H)
# HLA-DR DRB1*1101 (DR11) = HLA-DR DRB1*1101 (DR11) (Homo sapiens, UniProt P01903+P01911, A100R/A169T/A87E/I96F/K41T/L162R/M171V/P40S/Q125H/Q178H/Q39Y/Q99D/R42S/S66Y/T262R/V115G/W38E); details: DRB1 *1101
# HLA-DR DRB1*1101 (DR11), sequence (P01903 26-254 limits assumed, other chains not shown): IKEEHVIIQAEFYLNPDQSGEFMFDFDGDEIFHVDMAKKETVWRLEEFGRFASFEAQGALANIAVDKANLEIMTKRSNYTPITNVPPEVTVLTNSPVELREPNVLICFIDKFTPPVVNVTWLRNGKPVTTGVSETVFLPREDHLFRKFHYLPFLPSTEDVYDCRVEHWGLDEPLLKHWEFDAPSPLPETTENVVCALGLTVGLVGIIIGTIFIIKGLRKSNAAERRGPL
# HLA-DR DRB1*1302 (DR13), sequence (P01903 26-254 limits assumed, other chains not shown): as above
# HLA-DR DRB1*0301 (DR3), sequence (P01903 26-254 limits assumed, other chains not shown): as above
Sequence,IC50 (HLA-DR DRB1*0802 (DR8)) [nM],IC50 (HLA-DR DRB1*0701 (DR7); DRB1 *0701) [nM],IC50 (HLA-DR DRB4*0101 (DR53)) [nM],IC50 (HLA-DR DRB1*0101 (DR1); DRB1 *0101) [nM],IC50 (HLA-DR DRB1*0401 (DR4); DRB1 *0401) [nM],IC50 (HLA-DR DRB1*0701 (DR7); read-out: DRB1 *0701) [nM],IC50 (HLA-DR DRB1*0401 (DR4); read-out: DRB1 *0401) [nM],other results
LYYLFNQHIKKELYH,1770,10200,1090,27,–,–,–,IC50 (HLA-DR DRB1*1302 (DR13)): 327 nM
MIMIKFMGVIYIMII,66100,68000,–,2900,312,–,–,–
MNALRRLPVICSFLV,265,–,5.7,2.1,13,–,–,IC50 (HLA-DR DRB1*1501 (DR15)): 36 nM; IC50 (HLA-DR DRB5*0101 (DR51)): 2560 nM
NHLINTPKIMPHHII,1300,–,1630,–,4800,–,–,IC50 (HLA-DR DRB1*1501 (DR15)): 560 nM; IC50 (HLA-DR DRB5*0101 (DR51)): 8880 nM
NVNLQKQLLTNHLIN [NVNLQKQLLTNHLIN],11200,555,354,96,2460,–,–,IC50 (HLA-DR DRB1*1501 (DR15)): 4450 nM; IC50 (HLA-DR DRB5*0101 (DR51)): > 7210 nM
NYELSKKAVIFTPIY,141,5500,–,713,536,–,–,–
QAISPRTLNSPAIF,–,–,–,–,–,39700,6210,IC50 (HLA-DR DRB1*0901 (DR9); read-out: DRB1 *0901): 286000 nM; IC50 (HLA-DR DRB1*0301 (DR3); read-out: DRB1 *0301): 298000 nM; IC50 (HLA-DR DRB1*0101 (DR1); read-out: DRB1 *0101): 1960 nM
QKQLLTNHLINTPK,–,–,–,–,–,4410,–,IC50 (HLA-DR DRB1*0802 (DR8); read-out: DRB1 *0802): 21000 nM
QLQQFQKEDAAVTLY,–,–,–,–,–,500,–,IC50 (HLA-DR DRB1*0901 (DR9); read-out: DRB1 *0901): 55400 nM; IC50 (HLA-DR DRB1*0101 (DR1); read-out: DRB1 *0101): 85 nM
RIVYRDGNPFAVCKV,–,–,–,–,19,–,–,IC50 (HLA-DR DRB1*1501 (DR15)): 81 nM; IC50 (HLA-DR DRB1*0901 (DR9); DRB1 *0901): 4960 nM; IC50 (HLA-DR DRB1*0301 (DR3)): 144 nM; IC50 (HLA-DR DRB1*1302 (DR13)): 122 nM
RTVYRDNNPYGVCIM,–,–,–,–,–,–,20,IC50 (HLA-DR DRB1*0901 (DR9); read-out: DRB1 *0901): 24100 nM; IC50 (HLA-DR DRB1*0101 (DR1); read-out: DRB1 *0101): 524 nM
SKIMKLPKLPISNGK,110,83700,–,824,6480,–,–,–
SMEYKKDFLITARKP,–,–,–,–,–,776,24,IC50 (HLA-DR DRB1*0802 (DR8); read-out: DRB1 *0802): 8900 nM
SVTWIGAAPLILSPI,–,–,–,–,–,83,3150,IC50 (HLA-DR DRB1*0901 (DR9); read-out: DRB1 *0901): 30 nM; IC50 (HLA-DR DRB1*0301 (DR3); read-out: DRB1 *0301): > 81800 nM; IC50 (HLA-DR DRB1*0101 (DR1); read-out: DRB1 *0101): 4.1 nM
TLRLCVQSTHVDIRT,–,3260,243,1520,12000,–,–,IC50 (HLA-DR DRB1*0901 (DR9); DRB1 *0901): 6370 nM; IC50 (HLA-DR DRB5*0101 (DR51)): > 22900 nM; IC50 (HLA-DR DRB1*1302 (DR13)): 932 nM; IC50 (HLA-DR DRB1*1101 (DR11)): 17600 nM
TYSYSFDSLFSAVKN,–,–,–,–,–,–,73,IC50 (HLA-DR DRB1*0802 (DR8); read-out: DRB1 *0802): 2260 nM
VLDLYPEPTDLYCYE,–,> 72300,18,11200,203,–,–,IC50 (HLA-DR DRB1*1501 (DR15)): 21600 nM; IC50 (HLA-DR DRB1*0901 (DR9); DRB1 *0901): > 32200 nM; IC50 (HLA-DR DRB1*0301 (DR3)): 121 nM; IC50 (HLA-DR DRB5*0101 (DR51)): > 15300 nM; IC50 (HLA-DR DRB1*1302 (DR13)): > 12000 nM; IC50 (HLA-DR DRB1*1101 (DR11)): > 15200 nM
VQQLLMGALTVTCPL,–,71,204,10,–,–,–,IC50 (HLA-DR DRB1*0901 (DR9); DRB1 *0901): 180 nM; IC50 (HLA-DR DRB1*0301 (DR3)): 34300 nM; IC50 (HLA-DR DRB5*0101 (DR51)): 7150 nM; IC50 (HLA-DR DRB1*1302 (DR13)): 574 nM; IC50 (HLA-DR DRB1*1101 (DR11)): 11100 nM
VRTLQQLLMQTCTIV,–,–,–,–,–,1820,322,IC50 (HLA-DR DRB1*0901 (DR9); read-out: DRB1 *0901): 496 nM; IC50 (HLA-DR DRB1*0101 (DR1); read-out: DRB1 *0101): 36 nM
VYDFAFADLTVVYRE,–,7010,10700,173,–,–,–,IC50 (HLA-DR DRB1*1501 (DR15)): 9450 nM; IC50 (HLA-DR DRB1*0901 (DR9); DRB1 *0901): 155 nM; IC50 (HLA-DR DRB1*1302 (DR13)): > 13100 nM; IC50 (HLA-DR DRB1*1101 (DR11)): > 18000 nM
YGIIVPVLTSLFNKV,–,–,–,–,–,60,2,IC50 (HLA-DR DRB1*0802 (DR8); read-out: DRB1 *0802): 793 nM; IC50 (HLA-DR DRB1*0101 (DR1); read-out: DRB1 *0101): 6 nM
